# From PMC3170513 (Neuropeptides, 2011)
# Starred links: 1 amine or outer side, 2 acyl side, 3 side chain; linkers in the order of their positions; H or OH if unused. Positions of bridges follow the written chain, without caps; N, C: chain ends. Non-standard residues stand in square brackets, D forms with d. Residues, ends and D or L forms follow the SMILES beside them. Chains are numbered I, II in the order given. Actinocin(9to1) = Cc1c2oc3c(C)ccc(C(=O)[*:1])c3nc-2c(C(=O)[*:2])c(N)c1=O; NMeV = CN[C@H](C(=O)O)C(C)C; Sar = CNCC(=O)O
# Legend:
# [1] = tested on: 125I-CART 61-102 specific binding in PC12 cells; experiment: Effect of differentiation; format: cell-based, Rat; conditions: 5 nM radioligand; for effect of inhibitors on specific binding, undifferentiated cells: undifferentiated PC12 cells, 6 hours, CHX 10 ug/ml, ActiD 2 mM, CytoD 4 mM, n=3 – 5
# [2] = tested on: ERK signaling in AtT20 cells; conditions: ref Lakatos et al., 2005; cited from earlier work
# [3] = tested on: phospho-ERK in PC12 cells; experiment: ERK activation; format: cell-based, Rat; conditions: for inhibition of CART-induced phospho-ERK (general, in words): pertussis toxin
# [4] = tested on: voltage dependant Ca++ signaling in hippocampal cells; conditions: hippocampal cells in culture; ref Yermolaieva et al., 2001; cited from earlier work
# [5] = tested on: CART binding in nucleus accumbens neurons; conditions: primary cell cultures; ref Jones and Kuhar, 2008; cited from earlier work
# [6] = tested on: CART binding in PC12 cells; conditions: ref Maixnerova et al., 2007, Maletinska et al.; cited from earlier work
molecule,measurement,setting,value
"Cc1c2oc3c(C)ccc(C(=O)N[C@@H]4C(=O)N[C@H](C(C)C)C(=O)N5CCC[C@H]5C(=O)N(C)CC(=O)N(C)[C@@H](C(C)C)C(=O)O[C@@H]4C)c3nc-2c(C(=O)N[C@@H]2C(=O)N[C@H](C(C)C)C(=O)N3CCC[C@H]3C(=O)N(C)CC(=O)N(C)[C@@H](C(C)C)C(=O)O[C@@H]2C)c(N)c1=O [ActiD, Actinomycin D] (I: T[dV]P[Sar][NMeV] / II: T[dV]P[Sar][NMeV]; ester I:1-I:C, II:1-II:C; linker I:N-II:N via Actinocin(9to1))","effect of inhibitors on specific binding, undifferentiated cells",[1],none of the inhibitors had any effects
"C[C@@H]1C[C@@H]([C@H](O)CC2CC(=O)NC(=O)C2)C(=O)[C@@H](C)C1 [CHX, Cycloheximide]","effect of inhibitors on specific binding, undifferentiated cells",[1],none of the inhibitors had any effects
"C=C1[C@@H](C)[C@H]2[C@H](Cc3ccccc3)NC(=O)[C@]23[C@H](OC(C)=O)/C=C/[C@@](C)(O)C(=O)[C@@H](C)C/C=C/[C@H]3[C@@H]1O [CytoD, Cytochalasin D]","effect of inhibitors on specific binding, undifferentiated cells",[1],none of the inhibitors had any effects
Pertussin Toxin [PTX],ERK signaling in AtT20 cells,[2],reduced
same,"inhibition of CART-induced phospho-ERK (general, in words)",[3]; PC12 cells,reduced
same,"inhibition of CART-induced phospho-ERK (general, in words)","[3]; PC12 cells, listed as pertussis toxin",blocked
same,"inhibition of CART-induced phospho-ERK, N-differentiated cells","[3]; PTX 200ng/m, at least 16 hrs, N 3 days, CART 61-102 0.3 µM",prevented
same,"inhibition of CART-induced phospho-ERK, N + P-differentiated cells","[3]; PTX 200ng/m, at least 16 hrs, N + P 3 days, CART 61-102 0.3 µM",inhibited
same,"inhibition of CART-induced phospho-ERK, undifferentiated cells","[3]; PTX 200ng/m, at least 16 hrs, undifferentiated PC12 cells, CART 0.3 µM",inhibited
same,effect of PTX alone on phospho-ERK,"[3]; PTX alone vs control, PC12 cells",no inhibitory effect compared to control
same,effect on voltage dependant Ca++ signaling,[4],blocked
Nc1nc2c(ncn2[C@@H]2O[C@H](COP(=O)(O)OP(=O)(O)OP(=O)(O)O)[C@@H](O)[C@H]2O)c(=O)[nH]1 [GTP],specific binding in nucleus accumbens neurons and effect of nucleotides on it,[5],reduced the binding of CART peptide
"Nerve Growth Factor 2.5S (protein, UniProt P01139 122-241, looked up, Beta-nerve growth factor) Beta-nerve growth factor: SSTHPVFHMGEFSVCDSVSVWVGDKTTATDIKGKEVTVLAEVNINNSVFRQYFFETKCRASNPVESGCRGIDSKHWNSYCTTTHTFVKALTTDEKQAAWRFIRIDTACVCVLSRKATRRG",specific binding in PC12 cells,[6],increased after differentiation
same,change of specific 125I-CART 61-102 binding over 1-3 days of differentiation,"[1]; NGF 50ng/mL and/or PACAP 100nM, 1, 2, 3 days, N = 3 – 5",increased
same,"phospho-ERK stimulation, positive controls","[3]; acute treatment, undifferentiated and differentiated PC12 cells, data not shown",increased ERK phosphorylation
